Experimental data: patent US7794994B2 (Kemeta, LLC, priority 2001, dated 2010)
Where “and” joins values, the source holds several entries; their conditions need not be identical. Equal values may be shown once.

What was measured:
[1] = test system: S-ADH from X. autotrophicus strain Py2; assay: Secondary alcohol dehydrogenase NADH oxidation spectrophotometric assay; format: biochemical, Xanthobacter autotrophicus strain Py2; settings: for specific activity, alcohol oxidation: at pH 7.8; for inhibition of S-ADH activity: saturating acetone, alcohol at about 13-fold over the Km value for acetone, data not shown; for Relative S-ADH Activity (%) X. Py2, ketone reduction: ketone reduction rates, pH 6.2, 2.5 mM substrate, 0.2 mM NADH, acetone = 100; for Relative S-ADH Activity (%) X. Py2, alcohol oxidation: alcohol oxidation rates, pH 7.6, 2.5 mM substrate, 0.2 mM NAD+, 2-propanol = 100, NA = no activity detected
Method: (§1) Assays were performed in 2 mL quartz cuvettes and contained NAD(H) (0.2 mM), potassium phosphate buffer (25 mM), and a source of enzyme (cell-free extracts, column fractions, or purified enzyme) in a total reaction volume of 1 mL at pH 6.2 ([…]) at 30° C. Assays were pre-incubated for 1.5 min. at 30° C. with all assay components except substrate. Assays were initiated by addition of substrate (2.5 mM) and monitored over time by measuring the change in absorbance at 340 nm (∈340 of 6.22 mM^−1·cm^−1 for NADH).
Data analysis. Kinetic constants (Km and Vmax) were calculated by fitting initial rate data to the Michaelis-Menten equation and using the software KaleidaGraph Fourth Edition, (Synergy Software, Reading, Pa.).

S-ADH from strain IP-1 = assay: S-ADH spectrophotometric assay, partially purified S-ADH of isolate IP-1; format: biochemical, isopropanol-grown bacterial strain TDCC IP-1; settings: for Relative S-ADH Activity (%) IP-1, alcohol oxidation: alcohol oxidation rates, pH 7.6, 2.5 mM substrate, 0.2 mM NAD+, 2-propanol = 100, NA = no activity detected; for Relative S-ADH Activity (%) IP-1, ketone reduction: ketone reduction rates, pH 6.2, 2.5 mM substrate, 0.2 mM NADH, acetone = 100
Method: Protein purifications. […] Secondary alcohol dehydrogenase (S-ADH) from X. autotrophicus Py2 was purified via the following protocol. Cell-free extracts (380 mL) of isopropanol-grown X. autotrophicus Py2 (150 g) were prepared as described above, and applied to a 5×15 cm column of DEAE-Sepharose FAST FLOW (Diethylaminoethyl cross-linked agarose bead material; Catalog number 17-0709-10, Amersham Pharmacia Biotech, Piscataway, N.J.)) equilibrated in buffer A (25 mM MOPS (3-(N-morpholino)propanesulfonic acid), pH 7.6, 5% glycerol, 1 mM dithiothreitol) at a flow rate of 10 mL/min. After loading, the column was washed with […] buffer A and developed with a 2400 mL linear gradient of 90-290 mM KCl in buffer A. Fractions containing S-ADH activity were pooled and dialyzed against 2 L of 25 mM potassium phosphate (pH 6.2) containing 5% glycerol (buffer B) for 16 h at 4° C. […] After washing the column with 30 mL of buffer B, S-ADH was eluted with 20 mL of buffer A containing 10 mM NAD^+. Fractions containing S-ADH were then dialyzed against 2 L of buffer A for 16 h at 4° C., concentrated by ultrafiltration (using a YM30 ultrafiltration membrane; catalog no. 13722, from Millipore, Bedford, Mass.), and frozen in liquid nitrogen. Partially purified S-ADH from bacterial screen cultures was prepared as follows: cell-free extracts from 1 to 5 g of cell paste were prepared as described above and applied to a 5 mL HI TRAP Q column (quaternary, tetraethylammonium, cross-linked agarose bead material for use as an anion exchange matrix; catalog number 17-1153-01, Amersham Pharmacia Biotech) equilibrated in 100 mM MOPS, pH 7.6, containing 5% (v/v) glycerol (buffer C). The column was washed with 10 mL buffer C and developed with a 100 mL linear gradient of 0 to 100 mM NaCl in buffer C. Fractions containing S-ADH activity were pooled, concentrated to 0.5 mL using a 30 kDa MWCO (“molecular weight cut-off”) centrifugal membrane (catalog number UFV4BTK25, Millipore), and stored at −80° C.
as §1

S-ADH from C. boidinii = assay: S-ADH spectrophotometric assay, C. boidinii S-ADH; format: biochemical, Candida boidinii; settings: pH 7.6, 5 mM substrate; for Relative S-ADH Activity (%) C. boidinii, alcohol oxidation: alcohol oxidation rates, 0.2 mM NAD+, 2-propanol = 100; for Relative S-ADH Activity (%) C. boidinii, ketone reduction: ketone reduction rates, 0.2 mM NADH, acetone = 100
Method: as §1, with “Assays were initiated by addition of substrate (2.5 mM) and monitored over time by measuring the change in absorbance at 340 nm (∈340 of 6.22 mM^−1·cm^−1 for NADH).” left out

[2] = test system: S-ADH from M. vaccae JOB-5; assay: S-ADH spectrophotometric assay, propane-grown M. vaccae JOB-5; format: biochemical, Mycobacterium vaccae strain JOB-5; settings: for Relative S-ADH Activity (%) JOB 5, ketone reduction: ketone reduction rates, pH 6.2, 2.5 mM substrate, 0.2 mM NADH, acetone = 100; for Relative S-ADH Activity (%) JOB 5, alcohol oxidation: alcohol oxidation rates, pH 7.6, 2.5 mM substrate, 0.2 mM NAD+, 2-propanol = 100, NA = no activity detected
Method: as §1

Structure (SMILES)	S-ADH activity in the presence of ethanol ([1]; 41 mM ethanol, equivalent to 500 ppm (v/v) gas phase ethanol)	specific activity, alcohol oxidation [1]	inhibition of S-ADH activity [1]	Relative S-ADH Activity (%) IP-1, alcohol oxidation (S-ADH from strain IP-1)	Relative S-ADH Activity (%) C. boidinii, alcohol oxidation (S-ADH from C. boidinii)	Relative S-ADH Activity (%) X. Py2, ketone reduction [1]	Relative S-ADH Activity (%) IP-1, ketone reduction (S-ADH from strain IP-1)	Relative S-ADH Activity (%) JOB 5, ketone reduction [2]	Relative S-ADH Activity (%) C. boidinii, ketone reduction (S-ADH from C. boidinii)	Km ([1]; reduction of acetone to isopropanol, NADH at fixed saturating concentration, read-out: apparent Km)	Relative S-ADH Activity (%) JOB 5, alcohol oxidation [2]	Relative S-ADH Activity (%) X. Py2, alcohol oxidation [1]
CCO [Ethanol]	82-85%	No activity	no inhibition was observed	9%	9%							
CCC(C)=O [2-Butanone]						170%	192%	213%	175%			
CC(C)=O [Acetone, acetone]						100%	100%	100%	100%	~144 µM and 144 µM		
CCCO [1-Propanol]		No activity	no inhibition was observed	2%	9%						9%	
CCC(C)O (centres unmarked) [2-Butanol]		21±3.6 μmol alcohol oxidized min^−1mg^−1 protein and 37±1.1 μmol alcohol oxidized min^−1mg^−1 protein		147%	100%						130%	88%
CC(C)O [2-Propanol]		24±1.8 μmol alcohol oxidized min^−1mg^−1 protein		100%	100%						100%	100%
